pKi: −log10 of the molar value. Values joined by “and” are separate entries in the source; they are usually repeats but may differ in a detail not shown here. Identical values can stand only once.
Tests used:
D(3) dopamine receptor [1] = target: T1, D(3) dopamine receptor (Homo sapiens, UniProt P35462); assay: Displacement of [3H]-sulpiride from human dopamine D3 receptor expressed in HEK293 cells at 100 nM after 150 mins by liquid scintillation counting; format: cell-based
D(2) dopamine receptor [2] = target: T2, D(2) dopamine receptor (Homo sapiens, UniProt P14416); assay: Displacement of [3H]-sulpiride from human dopamine D2 receptor expressed in HEK293 cells at 100 nM after 150 mins by liquid scintillation counting; format: cell-based
D(2) dopamine receptor [3] = target: T2, D(2) dopamine receptor; assay: Displacement of [3H]-sulpiride from human dopamine D2 receptor expressed in HEK293 cells after 150 mins by liquid scintillation counting; format: cell-based
Homo sapiens = species on record: Homo sapiens; assay: Selectivity ratio of Ki for human dopamine D2 receptor to Ki for human dopamine D3 receptor
D(3) dopamine receptor [4] = target: T1, D(3) dopamine receptor; assay: Displacement of [3H]-sulpiride from human dopamine D3 receptor expressed in HEK293 cells after 150 mins by liquid scintillation counting; format: cell-based

T1 sequence (P35462 whole entry): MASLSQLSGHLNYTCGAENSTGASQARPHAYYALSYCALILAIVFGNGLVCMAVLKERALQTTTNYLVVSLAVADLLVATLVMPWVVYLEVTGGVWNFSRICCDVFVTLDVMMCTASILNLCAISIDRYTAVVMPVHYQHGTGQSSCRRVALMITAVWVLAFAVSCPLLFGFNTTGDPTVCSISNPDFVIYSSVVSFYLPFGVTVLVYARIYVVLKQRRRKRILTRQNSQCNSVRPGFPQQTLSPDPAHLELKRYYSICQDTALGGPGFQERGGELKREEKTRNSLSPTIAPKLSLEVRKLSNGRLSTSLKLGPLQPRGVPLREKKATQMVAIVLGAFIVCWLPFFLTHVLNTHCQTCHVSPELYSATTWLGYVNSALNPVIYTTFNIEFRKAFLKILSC
T2 sequence (P14416 whole entry): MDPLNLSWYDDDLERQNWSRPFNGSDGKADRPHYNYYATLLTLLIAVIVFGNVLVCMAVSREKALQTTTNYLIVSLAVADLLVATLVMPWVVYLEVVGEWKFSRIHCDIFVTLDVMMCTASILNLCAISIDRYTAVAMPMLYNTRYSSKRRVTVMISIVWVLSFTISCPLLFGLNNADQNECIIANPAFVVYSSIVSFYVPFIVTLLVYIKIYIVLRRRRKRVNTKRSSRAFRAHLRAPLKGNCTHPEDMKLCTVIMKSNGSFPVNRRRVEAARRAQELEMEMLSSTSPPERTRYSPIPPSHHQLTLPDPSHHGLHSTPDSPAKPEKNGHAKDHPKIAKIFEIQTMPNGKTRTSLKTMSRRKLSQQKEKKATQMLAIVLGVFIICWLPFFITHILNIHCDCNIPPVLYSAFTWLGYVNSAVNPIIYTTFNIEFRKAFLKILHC

SMILES	inhibition (D(3) dopamine receptor [1])	inhibition (D(2) dopamine receptor [2])	pKi (D(2) dopamine receptor [3])	Ratio Ki (Homo sapiens)	pKi (D(3) dopamine receptor [4])
COc1ccc2nc(NC(=O)CCCCN3CCN(c4ccc(Cl)cc4F)CC3)sc2c1	33.4% and 28.7%	3.1% and 2.6%			
O=C(CCCCN1CCN(c2ccc(Cl)cc2Cl)CC1)Nc1nc2ccccc2s1	46% and 48.3%	14.5% and 15.2%	5.25	63.8	7.06
COc1ccc2nc(NC(=O)CCCCN3CCN(c4ccccc4Cl)CC3)sc2c1	60.5% and 81.6%	78.8% and 54.5%			
O=C(CCCCN1CCN(c2ccc(Cl)cc2)CC1)Nc1nc2cc(Cl)ccc2o1	1.7%	-4.1%			
O=C(CCCCN1CCN(c2ccc(Cl)cc2)CC1)Nc1nc2ccccc2o1	56.1%	40.9%			
O=C(CCCCN1CCN(c2ccc(Cl)cc2)CC1)Nc1nc2ccc([N+](=O)[O-])cc2s1	45.2%	30.2%			
Cc1ccc2nc(NC(=O)CCCCN3CCN(c4ccc(Cl)cc4)CC3)sc2c1	13.4%	1%			
COc1ccc2nc(NC(=O)CCCCN3CCN(c4ccc(Cl)cc4)CC3)sc2c1			6.71	21	8.03
O=C(CCCCN1CCN(c2cccc(C(F)(F)F)c2)CC1)Nc1nc2ccccc2[nH]1	27.7% and 34.9%	34% and 14.3%			
O=C(CCCCN1CCC(O)(c2ccc(Cl)cc2)CC1)Nc1nc2ccccc2s1	25.8% and 7.9%	33.3% and 24.8%			
O=C(CCCCN1CCN(c2ccc(Cl)cc2)CC1)Nc1nc2ccc(Cl)cc2s1	30.3% and 26.2%	7% and 11%			
O=C(CCCCN1CCN(c2ccc(Cl)cc2)CC1)Nc1nc2ccccc2s1	65.2%	57.3%			
O=C(CCCCN1CCN(c2cccc(Cl)c2Cl)CC1)Nc1nc2ccccc2s1	34.8% and 12.8%	30.1% and 6.9%			
O=C(CCCCN1CCN(c2ccc(Cl)cc2)CC1)Nc1nc2ccccc2[nH]1	35.5%	29.9%			
O=C(CCCCN1CCN(c2ccccc2F)CC1)Nc1nc2ccccc2s1	75.1% and 63.1%		6.76	45	8.41

Reference: ChEMBL document CHEMBL3603825, “Synthesis and evaluation of arylpiperazine-reverse amides as biased dopamine D3 receptor ligands” (Bioorg Med Chem, 2015)
